These results are taken from article PMC8379256, “A xanthene derivative, DS20060511, attenuates glucose intolerance by inducing skeletal muscle-specific GLUT4 translocation in mice” (Communications Biology, 2021).

This test concerns L6-GLUT4myc myotubes. In words: GLUT4 translocation: cell surface GLUT4myc by anti-Myc antibody assay in L6-GLUT4myc myotubes. The format is cell-based, rat. Further details: key to GLUT4 translocation: fold of vehicle-treated group. How it is done:
The L6-GLUT4myc rat myoblast cell line was obtained from Dr. Amira Klip and Dr. Philip Bilan, through a license granted by The Hospital for Sick Children, 555 University Avenue, Toronto, Ontario, Canada M5G 1 × 8; or purchased from Kerafast, Boston, MA (ESK202)[43]. The 3T3-L1-GLUT4myc fibroblast cell line was provided by Dr. Tomoyuki Yuasa, Tokushima University[44]. L6-GLUT4myc myoblasts were grown in MEMα (32571036, Thermo Fisher Scientific, Waltham, MA) supplemented with 10% FBS and 1% antibiotics, and then induced to differentiate into myotubes in MEMα supplemented with 2% FBS and 1% antibiotics for 5–8 days. 3T3-L1-GLUT4myc fibroblasts were induced to differentiate into adipocytes as described previously,[45] with minor modifications. Briefly, cells were grown to confluence in growth medium: DMEM (10569010, Thermo Fisher Scientific) supplemented with 10% FBS and 1% antibiotics, and then induced to differentiate into adipocytes in growth medium supplemented with 1 μM dexamethasone, 2 μM rosiglitazone, 0.5 mM isobutylmethylxanthine, and 10 μg mL^−1 insulin for 2 days. The adipocytes were then cultured in growth medium supplemented with 10 μg mL^−1 insulin for a few days before being used for the experiments.
Cell surface GLUT4 levels in the L6-GLUT4myc myoblasts and myotubes were determined by antibody binding assay as described previously[43],[44], with minor modifications. Briefly, cells in a 96- or 24-well plate were starved in serum-free MEMα (0.1% BSA and 1% antibiotics) for 3 h and then treated with the indicated concentrations of DS20060511 and/or insulin for 30 min at 37 °C. After fixation with 4% paraformaldehyde, the cells were incubated with 1% glycine in PBS at 4 °C for 10 min, and blocked with 10% normal goat serum and 3% BSA in PBS at 4 °C for 30 min. The cells were then incubated with anti-c-Myc antibody (sc-40, 1:500) diluted with blocking buffer at 4 °C for 1 h, washed with cold PBS(+), incubated with HRP-conjugated anti-mouse IgG diluted with blocking buffer at 4 °C for 30 min, and then washed again. SuperSignal ELISA Pico Chemiluminescent Substrate (Thermo Fisher Scientific) was added and the luminescent signal was measured. To investigate GLUT4 translocation in the 3T3-L1-GLUT4myc adipocytes, the cells were prepared in a 24-well plate, and anti-c-Myc antibody (sc-789, 1:1000), HRP-conjugated anti-rabbit IgG and SIGMAFAST OPD regent (Sigma–Aldrich) were added for optical detection of the cell surface GLUT4myc levels. The GLUT4 translocation activity was normalized to that in the vehicle-treated group.

Values joined by “and” are separate entries in the source; they are usually repeats but may differ in a detail not shown here. Equal values may be shown once.

`C/C1=C/C(=O)O[C@@H]2C[C@@H](CC[C@H](C)/C=C\CC1)O[C@@](O)([C@@H]1CSC(=O)N1)C2` [Latrunculin B, reference compound]: where the note is “100 nM insulin, Latrunculin B 10-200 nM, Fig. 4d”, the “effect on GLUT4 translocation induced by insulin” value is recorded as “suppressed GLUT4 translocation induced by insulin”. In addition, the “effect on GLUT4 translocation induced by DS20060511” value (30 μM DS20060511, Latrunculin B 10-200 nM, Fig. 4d) is given as “not that induced by DS20060511 treatment”. For the same molecule, the GLUT4 translocation (Control (no insulin or DS20060511), Latrunculin B 10 nM) was 1.16 and 0.86 and 0.98; the GLUT4 translocation (Control, Latrunculin B 30 nM) was 0.98 and 1.11 and 0.90; the GLUT4 translocation (Control, Latrunculin B 100 nM) is 1.11 and 0.92 and 0.97; the GLUT4 translocation (Control, Latrunculin B 200 nM) is 1.06 and 1.00 and 0.94.
